Test system: 362531-283-R-J2-PDC complex spheroid viability
Test: Anticancer human tumor 362531-283-R-J2-PDC patient-derived colon adenocarcinoma cell line growth inhibition [RAS]
Details: for IC50: curve of first compound; for viability, T/C: stronger effect = lower value; active means viability on the fitted dose curve at most 10% of control; inactive means the rest
Outline: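 Agents were tested in combination matrices in half-log decrements from a top concentration at or near clinical Cmax (10 microM if undetermined). Targets were multi-cell spheroids of tumour lines plus HUVEC and MSC stromal cells.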

[1] = second compound 0.000949 µM, first compound 0.0316 µM
[2] = second compound 0.000949 µM, first compound 0.1 µM
[3] = second compound 0.000949 µM, first compound 0.316 µM
[4] = second compound 0.000949 µM, first compound 1 µM
[5] = second compound 0.003 µM, first compound 0.0316 µM
[6] = second compound 0.003 µM, first compound 0.1 µM
[7] = second compound 0.003 µM, first compound 0.316 µM
[8] = second compound 0.003 µM, first compound 1 µM
[9] = second compound 0.00949 µM, first compound 0.0316 µM
[10] = second compound 0.00949 µM, first compound 0.1 µM
[11] = second compound 0.00949 µM, first compound 0.316 µM
[12] = second compound 0.00949 µM, first compound 1 µM
[13] = second compound 0.03 µM, first compound 0.0316 µM
[14] = second compound 0.03 µM, first compound 0.1 µM
[15] = second compound 0.03 µM, first compound 0.316 µM
[16] = second compound 0.03 µM, first compound 1 µM
[17] = second compound 0.0949 µM, first compound 0.0316 µM
[18] = second compound 0.0949 µM, first compound 0.1 µM
[19] = second compound 0.0949 µM, first compound 0.316 µM
[20] = second compound 0.0949 µM, first compound 1 µM
[21] = second compound 0.3 µM, first compound 0.0316 µM
[22] = second compound 0.3 µM, first compound 0.1 µM
[23] = second compound 0.3 µM, first compound 0.316 µM
[24] = second compound 0.3 µM, first compound 1 µM
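Further: spheroids exposed to the agents for 7 days before readout.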
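Wherever viability, T/C is given: luminescence viability as percent of DMSO vehicle control wells.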

CC(=O)OC12COC1CC(O)C1(C)C(=O)C(O)C3=C(C)C(OC(=O)C(O)C(NC(=O)OC(C)(C)C)c4ccccc4)CC(O)(C(OC(=O)c4ccccc4)C21)C3(C)C (centres undefined) + CCn1c(-c2cccnc2C(C)OC)c2c3cc(ccc31)N1CCOC(CC(NC(=O)C(C(C)C)N(C)C(=O)C3(F)CCN(C(=O)C#CC(C)(C)N(C)C)CC3)C(=O)N3CCCC(N3)C(=O)OCC(C)(C)C2)C1
234 nM: IC50 (second compound 0.000949 µM) | IC50 (second compound 0.0949 µM)
229 nM: IC50 (second compound 0.3 µM)
235 nM: IC50 (second compound 0.003 µM)
243 nM: IC50 (second compound 0.03 µM)
inactive: viability, T/C [1] 98.1% | viability, T/C [2] 97.4% | viability, T/C [3] 33.3% | viability, T/C [4] 19.5% | viability, T/C (second compound 0.000949 µM, first compound 3.16 µM) 23.1% | viability, T/C (second compound 0.000949 µM, first compound 10 µM) 38.4% | viability, T/C [5] 102% | viability, T/C [6] 94.6% | viability, T/C [7] 34.7% | viability, T/C [8] 16.6% | viability, T/C (second compound 0.003 µM, first compound 3.16 µM) 24.5% | viability, T/C (second compound 0.003 µM, first compound 10 µM) 38.4% | viability, T/C [9] 101% | viability, T/C [10] 95.4% | viability, T/C [11] 31.1% | viability, T/C [12] 20% | viability, T/C (second compound 0.00949 µM, first compound 3.16 µM) 26% | viability, T/C (second compound 0.00949 µM, first compound 10 µM) 36.1% | viability, T/C [13] 93% | viability, T/C [14] 98% | viability, T/C [15] 36.5% | viability, T/C [16] 17.7% | viability, T/C (second compound 0.03 µM, first compound 3.16 µM) 29.2% | viability, T/C (second compound 0.03 µM, first compound 10 µM) 34.1% | viability, T/C [17] 95.2% | viability, T/C [18] 92.7% | viability, T/C [19] 34.8% | viability, T/C [20] 19% | viability, T/C (second compound 0.0949 µM, first compound 3.16 µM) 24.2% | viability, T/C (second compound 0.0949 µM, first compound 10 µM) 31.7% | viability, T/C [21] 105% | viability, T/C [22] 96.6% | viability, T/C [23] 31.9% | viability, T/C [24] 18.9% | viability, T/C (second compound 0.3 µM, first compound 3.16 µM) 22.5% | viability, T/C (second compound 0.3 µM, first compound 10 µM) 28.3%
225 nM: IC50 (second compound 0.00949 µM)

Nc1ccn(C2OC(CO)C(O)C2(F)F)c(=O)n1 (centres undefined) + CCn1c(-c2cccnc2C(C)OC)c2c3cc(ccc31)N1CCOC(CC(NC(=O)C(C(C)C)N(C)C(=O)C3(F)CCN(C(=O)C#CC(C)(C)N(C)C)CC3)C(=O)N3CCCC(N3)C(=O)OCC(C)(C)C2)C1
177 nM: IC50 (second compound 0.00949 µM)
163 nM: IC50 (second compound 0.3 µM)
189 nM: IC50 (second compound 0.03 µM)
169 nM: IC50 (second compound 0.000949 µM)
132 nM: IC50 (second compound 0.0949 µM)
153 nM: IC50 (second compound 0.003 µM)
inactive: viability, T/C (second compound 0.000949 µM, first compound 0.00316 µM) 100% | viability, T/C (second compound 0.000949 µM, first compound 0.01 µM) 95.5% | viability, T/C [1] 69.5% | viability, T/C [2] 77.3% | viability, T/C [3] 22.2% | viability, T/C [4] 31.3% | viability, T/C (second compound 0.003 µM, first compound 0.00316 µM) 103% | viability, T/C (second compound 0.003 µM, first compound 0.01 µM) 92.9% | viability, T/C [5] 77.6% | viability, T/C [6] 68.5% | viability, T/C [7] 22.9% | viability, T/C [8] 33.2% | viability, T/C (second compound 0.00949 µM, first compound 0.00316 µM) 103% | viability, T/C (second compound 0.00949 µM, first compound 0.01 µM) 93.2% | viability, T/C [9] 73.4% | viability, T/C [10] 77.4% | viability, T/C [11] 19.2% | viability, T/C [12] 25.5% | viability, T/C (second compound 0.03 µM, first compound 0.00316 µM) 111% | viability, T/C (second compound 0.03 µM, first compound 0.01 µM) 83.5% | viability, T/C [13] 86.8% | viability, T/C [14] 82.2% | viability, T/C [15] 20.1% | viability, T/C [16] 27.6% | viability, T/C (second compound 0.0949 µM, first compound 0.00316 µM) 100% | viability, T/C (second compound 0.0949 µM, first compound 0.01 µM) 91.7% | viability, T/C [17] 69.5% | viability, T/C [18] 69.6% | viability, T/C [19] 19.7% | viability, T/C [20] 26.8% | viability, T/C (second compound 0.3 µM, first compound 0.00316 µM) 96.2% | viability, T/C (second compound 0.3 µM, first compound 0.01 µM) 90% | viability, T/C [21] 73.3% | viability, T/C [22] 69.2% | viability, T/C [23] 23.2% | viability, T/C [24] 24.2%

Source: PubChem BioAssay AID2060909 (Molecular Pharmacology Branch, DTP, NCI, 2025)
